Data: US20120004235A1, “METHODS TO TREAT CANCER” (Rutgers, The State University of New Jersey, priority 2009, published 2012)

Tests used:
[1] = test system: HCT116 Human Colon Carcinoma; test: Human tumor cell CFU assay (Test B); type: cell-based; conditions: Homo sapiens, HCT-116, colony formation, continuous exposure 7-9 days
Protocol: (§1) For human tumor cell CFU assays, the cell lines which grow as monolayers, MDA-MB-231, HCT116, HT29, NCI-H460, KB3-1 and KBV-1 were grown in RPMI medium (Invitrogen/Gibco, Grand Island, N.Y.) supplemented with 5% fetal bovine serum (Invitrogen/Gibco, Grand Island, NY). The RPMI-8226 cell line grows in suspension.
(§2) For experiments, human tumor cells (1 103) were plated in 6-well plates in medium supplemented with 5% or 10% fetal bovine serum. The compounds were tested in concentrations over the range from 0.01 to 100 nanomolar in half-log intervals covering […] along with untreated control wells. In later experiments some cases the concentration ranges were refined to focus on the region of interest in the response curves. Each compound concentration was tested in duplicate wells. Cultures were exposed to the compounds continuously for 7-9 days at 37° C. in a humidified atmosphere of 5% carbon dioxide balance air. Each experiment was performed three independent times. Colonies were defined as clusters containing 30 or more cells.
(§3) For the monolayer cultures, colonies were visualized by staining with a preformulated crystal violet solution (Fisher Cat #291-472) which contained 0.41% crystal violet, 12% ethanol balance deionized water. To visualize the colonies, the medium was removed by aspiration; the monolayer was rinsed once with phosphate buffered saline which was removed by aspiration. Three drops of crystal violet solution was added to each well and the 6-well plate was rotated so that the crystal violet solution covered the surface area of each well. After 5 minutes exposure time, the wells were rinsed twice with phosphate buffered saline and the colonies were visible.
(§4) The values were expressed as the mean values with lower and upper 95% confidence intervals in nanomolar concentrations.

[2] = test system: HT29 Human Colon Carcinoma; test: Human tumor cell CFU assay (Test B); type: cell-based; conditions: Homo sapiens, HT-29, colony formation, continuous exposure 7-9 days
Protocol: as §1, §2, §3, §4

[3] = test system: KB-V1 MDR1+ KB3-1 Subline; test: Human tumor cell CFU assay (Test B); type: cell-based; conditions: Homo sapiens; colony formation, continuous exposure 7-9 days
Protocol: as §1, §2, §3, §4

[4] = test system: KB3-1 HeLa Human Cervical Carcinoma; test: Human tumor cell CFU assay (Test B); type: cell-based; conditions: Homo sapiens, colony formation, continuous exposure 7-9 days
Protocol: as §1, §2, §3, §4

[5] = test system: KBH5.0 BCRP+ KB3-1 Subline; test: Human tumor cell CFU assay (Test B); type: cell-based; conditions: Homo sapiens, KB 3-1, colony formation, continuous exposure 7-9 days
Protocol: as §1, §2, §3, §4

[6] = test system: MDA-MB-231 Human Breast Carcinoma; test: Human tumor cell CFU assay (Test B); type: cell-based; conditions: Homo sapiens, MDA-MB-231, colony formation, continuous exposure 7-9 days
Protocol: as §1, §2, §3, §4

[7] = test system: NCI-H460 Human Non-small Cell Lung Carcinoma; test: Human tumor cell CFU assay (Test B); type: cell-based; conditions: Homo sapiens, NCI-H460, colony formation, continuous exposure 7-9 days
Protocol: as §1, §2, §3, §4

[8] = test system: Human 786-0 Renal Cell Tumor Xenograft Model; test: Test D xenograft, Compound 2 free base; type: in vivo, nu/nu mice; conditions: qod × 3 for 2 cycles
[9] = In vitro plasma binding (Example 22); type: in vitro ADME; conditions: in vitro in mouse, rat, dog, and human
Protocol: (§5) The in vitro and in vivo activity of compound 2 and two of its metabolites (compound 5 and compound 6) were explored and compared with the activity of camptothecin Top1 inhibitors. […] In human HCT-116 colon ca, HT-29 colon ca and NCI-H460 NSCLC cells the concentration response for compound 2, compound 5 and compound 6 were the same. […] Compound 2 was administered intravenously on a QODx3 schedule for 2 cycles.

[10] = In vitro partitioning into red blood cells (Example 22); type: in vitro ADME; conditions: in vitro in mouse, rat, dog, and human
Protocol: as §5

[11] = In vivo pharmacokinetics (Example 22); conditions: in vivo in mouse, rat and dog
Protocol: as §5

[12] = test system: human HCT-116 colon ca, HT-29 colon ca and NCI-H460 NSCLC cells; test: 72 hour exposure concentration response in tumor cells (Example 22); type: cell-based; conditions: range over HCT-116, HT-29 and NCI-H460 cells and the three compounds
Protocol: as §5

[13] = test system: Human NCI-H292 Lung Tumor Xenograft Model; test: Test D xenograft, Compound 2 free base; conditions: for Increase in Life Span (ILS) / Tumor Growth Delay T-C / Tumor Growth Inhibition T/C (tumor volume): qod × 3 for 2 cycles
[14] = test system: Human H1299 Lung Tumor Xenograft Model; test: Test D xenograft, Compound 2 free base; conditions: qod × 3 for 2 cycles
[15] = test system: Human MDA-MB-231 Breast Tumor Xenograft Model; test: Test D xenograft, Compound 2 free base; conditions: qod × 3 for 2 cycles
[16] = test system: HCT-116 human colon tumor xenograft; test: Compound 2 after oral administration vs. the HCT-116 xenograft model
[17] = read-out: IC50 Values (95% Lower and Upper Confidence Intervals)
[18] = read-out: IC90 Values (95% Lower and Upper Confidence Intervals)
[19] = 1.36 mg/kg/day PO, qod×3 weekly for 2 cycles
[20] = 2.72 mg/kg/day PO, qod×3 weekly for 2 cycles
[21] = PO dosages (0.68, 1.36, 2.72 mg/kg/day, qod×3 weekly for 2 cycles)

CNCCn1c(=O)c2cc(OC)c(OC)cc2c2cnc3cc4c(cc3c21)OCO4 [Compound 2, 8,9-dimethoxy-2,3-methylenedioxy-5-[2-(N-methylamino)ethyl]-5H-dibenzo[c,h]1,6-naphthyridin-6-one] showed an IC50 [1, 17] of 0.9 nM, an IC90 [1, 18] of 2.8 nM and an IC50 [2, 17] of 0.15 nM. For the same molecule, the IC90 [2, 18] was 0.9 nM, the IC50 [3] was 2 nM and the IC90 [3] was 8.3 nM. It also gave an IC50 [4] of 1.7 nM, an IC90 [4, 18] of 7.7 nM and an IC90 [5] of 3 nM. The IC50 [5, 17] was 1 nM, the IC50 [6, 17] was 0.2 nM and the IC90 [6, 18] was 0.7 nM. For the same molecule, the IC50 [7, 17] was 1.2 nM, the IC90 [7, 18] was 5 nM and the “Increase in Life Span (ILS)” value ([8]; 1 mg/kg/day IV) was 1.2x. The “Tumor Growth Delay T-C” value ([8]; 1 mg/kg/day IV) was 10 days, the “Tumor Growth Inhibition T/C (tumor volume)” value (“Tumor Growth Inhibition T/C” below) ([8]; 1 mg/kg/day IV) was 52.5% and the “Increase in Life Span (ILS)” value ([8]; 1.36 mg/kg/day IV) was 1.2x. For the same molecule, the “Tumor Growth Delay T-C” value ([8]; 1.36 mg/kg/day IV) was 10 days, the “Tumor Growth Inhibition T/C” value ([8]; 1.36 mg/kg/day IV) was 52.2% and the “Increase in Life Span (ILS)” value ([8]; 1.7 mg/kg/day IV) was 1.4x. The “Tumor Growth Delay T-C” value ([8]; 1.7 mg/kg/day IV) was 17 days, the “Tumor Growth Inhibition T/C” value ([8]; 1.7 mg/kg/day IV) was 25.9% and the plasma binding [9] was 88-93%. The “partitioning into red blood cells” value [10] was “concentration dependent partitioning into red blood cells”, the clearance [11] was “low-to-moderate clearance” and the volume of distribution [11] was “large volume of distribution”. The IC50 ([12]; read-out: IC50 concentrations) was 0.5 to 0.65 nM, the IC90 ([12]; read-out: IC90 concentrations) was 1.8 to 2 nM and the “Increase in Life Span (ILS)” value ([13]; 1 mg/kg/day IV) was 1.5x. The “Tumor Growth Delay T-C” value ([13]; 1 mg/kg/day IV) was 18 days, the “Tumor Growth Inhibition T/C” value ([13]; 1 mg/kg/day IV) was 29.4% and the “Increase in Life Span (ILS)” value ([13]; 1.36 mg/kg/day IV) was 1.6x. The “Tumor Growth Delay T-C” value ([13]; 1.36 mg/kg/day IV) was 21 days, the “Tumor Growth Inhibition T/C” value ([13]; 1.36 mg/kg/day IV) was 25.2% and the “Increase in Life Span (ILS)” value ([13]; 1.7 mg/kg/day IV) was 1.6x. The “Tumor Growth Delay T-C” value ([13]; 1.7 mg/kg/day IV) was 21 days, the “Tumor Growth Inhibition T/C” value ([13]; 1.7 mg/kg/day IV) was 15.2% and the “maximum body weight loss” value ([13]; high dosage, IV QODx3 for 2 cycles) was 20.9%. The “Increase in Life Span (ILS)” value ([14]; 1 mg/kg/day IV) was 1.7x, the “Tumor Growth Delay T-C” value ([14]; 1 mg/kg/day IV) was 20 days and the “Tumor Growth Inhibition T/C” value ([14]; 1 mg/kg/day IV) was 22.6%. The “Increase in Life Span (ILS)” value ([14]; 1.36 mg/kg/day IV) was 1.8x, the “Tumor Growth Delay T-C” value ([14]; 1.36 mg/kg/day IV) was 24 days and the “Tumor Growth Inhibition T/C” value ([14]; 1.36 mg/kg/day IV) was 13.2%. The “Increase in Life Span (ILS)” value ([14]; 1.7 mg/kg/day IV) was 2.1x, the “Tumor Growth Delay T-C” value ([14]; 1.7 mg/kg/day IV) was 34 days and the “Tumor Growth Inhibition T/C” value ([14]; 1.7 mg/kg/day IV) was 8.7%. The “Increase in Life Span (ILS)” value ([15]; 1 mg/kg/day IV) was 1.7x, the “Tumor Growth Delay T-C” value ([15]; 1 mg/kg/day IV) was 21 days and the “Tumor Growth Inhibition T/C” value ([15]; 1 mg/kg/day IV) was 30.7%. For the same molecule, the “Increase in Life Span (ILS)” value ([15]; 1.36 mg/kg/day IV) was over 2.3x, the “Tumor Growth Delay T-C” value ([15]; 1.36 mg/kg/day IV) was over 47 days and the “Tumor Growth Inhibition T/C” value ([15]; 1.36 mg/kg/day IV) was 8.6%. The “Increase in Life Span (ILS)” value ([15]; 1.7 mg/kg/day IV) was 2.0x, the “Tumor Growth Delay T-C” value ([15]; 1.7 mg/kg/day IV) was 35 days and the “Tumor Growth Inhibition T/C” value ([15]; 1.7 mg/kg/day IV) was 17.7%. For the same molecule, the TGD [16, 19] was “no effect on TGD”, the “TGI (T/C)” value [16, 19] was 57.6% and the ILS [16, 20] was 1.5 fold. The “TGD (T-C)” value [16, 20] was 18 days, the toxic deaths [16, 21] was “no toxic deaths” and the weight loss [16, 21] was under 20%.
